Read-outs that look alike come from different tables or passages of the source.
What was measured:
Format in all cases: cell-based
[1] = biological target: wild-type human cardiac sodium channel, hNav1.5 (Homo sapiens, UniProt Q14524); assay: Late INa screening assay (QPatch whole cell patch clamp, tefluthrin-enhanced late sodium current); conditions: HEK293 hNav1.5, late INa activated with 10 μM Tefluthrin
Procedure, shortened: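 Automated whole-cell patch clamp of HEK293 cells stably expressing hNav1.5 (no β subunits), 23-25 °C. Late current enhanced by 10 μM tefluthrin, 250 ms steps to −20 mV from −120 mV at 0.1 Hz, measured 225-250 ms. Compounds typically 1 μM, three additions over 7-8 min; % block normalised to 0 Na baseline.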

hNav1.5 Peak INa = hNav1.5 Peak INa (Homo sapiens, UniProt Q14524); assay: Peak INa screening assay (tonic block and use-dependent block)
Experimental: The assay uses an HEK293 (human embryonic kidney) cell line heterologously expressing the wild-type human cardiac sodium channel, hNav1.5, purchased from Millipore (Billerica, Mass.). No beta subunits were coexpressed with the Na channel alpha subunit. Cells are maintained with standard tissue culture procedures and stable channel expression is maintained with 400 μg/mL Geneticin in the culture medium. […] Experiments are carried out at 23-25° C. […] Currents through open sodium channels are automatically recorded and stored in the Sophion Bioscience Oracle database (Sophion Bioscience, Copenhagen, Denmark). Analysis is performed using QPatch Assay and database software and data are compiled in Excel. Compound stocks are routinely made by the Gilead Sample Bank in plastic vials to 10 mM in dimethyl sulfoxide (DMSO). […] Stocks are sonicated as necessary. […] Compounds are diluted in extracellular solution to 1 μM in glass vials and then transferred to glass well plates before robotic addition to the cells. […] Good separation between the concentrations of test compound to reduce late and peak INa is beneficial to enable separation of the desired effect to reduce late INa-induced electrical and mechanical dysfunction from the undesired effect to reduce peak INa, which can lead to slowing or block of conduction of electrical excitation in the heart. It is contemplated that the compounds of Formula I avoid significant block of peak INa. […] Analysis of peak INa generally requires correction for rundown before determining the % block of peak current by the tested compound. […] Use-dependent block refers to the accumulation of block with increased frequency of channel activation. […] It is therefore expected that reduction of peak INa by compounds of this disclosure will be greater at high heart rates, such as those during tachyarrhythmias, than at normal heart rates. […] The intracellular solution used for the Peak INa assay is the same as outlined for the Late INa assay (see above). […] After establishing the whole cell recording configuration, channels were stimulated to open with low frequency stimulation (0.1 Hz) for 7 minutes so that the recording can be monitored and the extent to which the recording has stabilized can be assessed. […] Both TB and UDB were analyzed by incorporating rundown correction for the peak INa and UDB as calculated by compensating for the small use-dependent effect of the stimulation protocol on peak INa in the absence of compound.

human Nav1.1 = biological target: T1, human Nav1.1 (Homo sapiens, UniProt P35498); assay: Nav1.1 use-dependent block, whole-cell voltage clamp, 10 Hz pulse train; conditions: Chantest conditions, read-out: NAV1.1 UDB-10 HZ % Inhibition
T1 construct: expressed in transfected cells; host or cells: HEK293, transient transfection (Qiagen Superfect), α1:β1:β2 at 10:1:1

Chain of hNav1.5 Peak INa (Q14524 whole entry): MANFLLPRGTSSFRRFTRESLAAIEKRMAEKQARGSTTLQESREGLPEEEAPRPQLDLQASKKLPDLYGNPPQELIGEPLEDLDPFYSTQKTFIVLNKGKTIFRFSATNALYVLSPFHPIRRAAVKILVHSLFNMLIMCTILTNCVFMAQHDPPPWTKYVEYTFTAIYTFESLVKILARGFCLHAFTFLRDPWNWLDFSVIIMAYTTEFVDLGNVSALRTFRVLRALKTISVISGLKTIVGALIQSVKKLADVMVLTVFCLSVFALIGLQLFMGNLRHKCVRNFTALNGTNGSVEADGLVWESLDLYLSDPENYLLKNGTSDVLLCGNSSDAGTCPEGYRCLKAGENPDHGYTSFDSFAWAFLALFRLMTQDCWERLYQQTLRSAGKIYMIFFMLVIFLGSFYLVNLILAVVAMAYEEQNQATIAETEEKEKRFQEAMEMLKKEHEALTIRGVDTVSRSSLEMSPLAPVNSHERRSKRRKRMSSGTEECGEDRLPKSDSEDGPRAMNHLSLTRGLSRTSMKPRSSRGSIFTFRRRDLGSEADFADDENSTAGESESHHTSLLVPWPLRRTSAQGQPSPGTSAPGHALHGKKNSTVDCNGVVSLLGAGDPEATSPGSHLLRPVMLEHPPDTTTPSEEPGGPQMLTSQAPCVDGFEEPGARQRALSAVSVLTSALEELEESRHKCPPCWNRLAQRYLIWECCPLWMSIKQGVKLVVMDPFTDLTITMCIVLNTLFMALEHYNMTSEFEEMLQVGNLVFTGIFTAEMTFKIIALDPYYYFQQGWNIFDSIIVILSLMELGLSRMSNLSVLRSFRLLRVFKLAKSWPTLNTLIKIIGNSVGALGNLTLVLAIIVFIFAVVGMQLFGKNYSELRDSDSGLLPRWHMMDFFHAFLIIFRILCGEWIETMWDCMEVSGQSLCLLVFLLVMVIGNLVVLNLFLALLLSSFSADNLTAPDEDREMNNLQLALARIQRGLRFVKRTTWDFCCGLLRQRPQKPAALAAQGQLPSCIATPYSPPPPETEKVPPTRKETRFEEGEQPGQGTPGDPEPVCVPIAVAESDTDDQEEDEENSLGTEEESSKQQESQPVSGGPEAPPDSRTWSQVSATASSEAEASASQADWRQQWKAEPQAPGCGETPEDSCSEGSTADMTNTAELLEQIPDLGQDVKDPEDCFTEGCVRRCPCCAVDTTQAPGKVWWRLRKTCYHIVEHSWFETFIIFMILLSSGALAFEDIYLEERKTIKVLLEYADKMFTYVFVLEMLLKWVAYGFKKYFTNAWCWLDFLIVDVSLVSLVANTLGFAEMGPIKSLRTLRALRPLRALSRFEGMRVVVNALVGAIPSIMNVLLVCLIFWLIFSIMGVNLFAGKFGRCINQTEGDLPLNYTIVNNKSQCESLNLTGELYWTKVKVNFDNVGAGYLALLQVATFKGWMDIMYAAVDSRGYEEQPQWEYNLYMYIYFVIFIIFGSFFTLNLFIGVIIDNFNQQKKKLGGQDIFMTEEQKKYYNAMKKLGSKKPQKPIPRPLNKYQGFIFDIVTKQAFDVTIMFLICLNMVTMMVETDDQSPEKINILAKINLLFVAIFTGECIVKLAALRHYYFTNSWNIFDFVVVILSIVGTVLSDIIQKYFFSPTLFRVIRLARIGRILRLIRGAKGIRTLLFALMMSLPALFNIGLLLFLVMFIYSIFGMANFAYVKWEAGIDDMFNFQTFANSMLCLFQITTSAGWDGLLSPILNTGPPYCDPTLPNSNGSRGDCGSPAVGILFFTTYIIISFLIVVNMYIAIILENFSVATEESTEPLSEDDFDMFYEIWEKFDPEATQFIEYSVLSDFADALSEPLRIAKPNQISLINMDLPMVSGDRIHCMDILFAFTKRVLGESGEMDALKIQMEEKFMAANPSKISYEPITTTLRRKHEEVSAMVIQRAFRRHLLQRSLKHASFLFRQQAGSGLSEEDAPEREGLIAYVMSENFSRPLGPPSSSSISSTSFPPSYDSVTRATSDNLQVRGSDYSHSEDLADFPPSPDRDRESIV
Chain of wild-type human cardiac sodium channel, hNav1.5 (Q14524 whole entry): as above

FC(F)(F)c1ccc(-c2ccc3c(c2)C(NCc2ccccc2)=NCCO3)cc1 [II-2, N-benzyl-7-(4-(trifluoromethyl)phenyl)-2,3-dihydrobenzo[f][1,4]oxazepin-5-amine]
inhibition at 1 µM [1]: 41%
inhibition at 1 µM (hNav1.5 Peak INa; at 1 μM, 3 Hz stimulation, holding potential −100 mV, read-out: Peak UDB (use-dependent block of peak INa) % Inhibition): 57%
inhibition at 1 µM (hNav1.5 Peak INa; read-out: Peak TB (tonic block of peak INa) % Inhibition): 27%
inhibition at 1 µM (human Nav1.1): 9%
